# Earlier results, collected in paper PMC11508362, “Discovery of Novel Thiazole-Based SIRT2 Inhibitors as Anticancer Agents: Molecular Modeling, Chemical Synthesis and Biological Assays” (International Journal of Molecular Sciences, 2024).
# Read-outs that look alike come from different tables or passages of the source.
# Molecular target: T1, SIRT2 (Homo sapiens, UniProt Q8IXJ6)
# T1 sequence (Q8IXJ6 1-389): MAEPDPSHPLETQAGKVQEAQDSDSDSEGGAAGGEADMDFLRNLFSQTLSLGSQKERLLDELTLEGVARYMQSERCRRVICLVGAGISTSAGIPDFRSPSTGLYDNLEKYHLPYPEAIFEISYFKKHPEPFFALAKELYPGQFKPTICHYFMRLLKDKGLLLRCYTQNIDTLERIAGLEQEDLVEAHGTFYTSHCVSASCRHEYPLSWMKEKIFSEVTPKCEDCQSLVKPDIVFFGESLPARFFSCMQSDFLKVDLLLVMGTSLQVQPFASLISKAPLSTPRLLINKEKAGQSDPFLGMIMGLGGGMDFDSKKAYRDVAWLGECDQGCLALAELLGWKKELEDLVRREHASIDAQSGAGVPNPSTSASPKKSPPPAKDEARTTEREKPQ
# Settings: cited from earlier work
# [1] = Table S1, ref [2] Schiedel et al., J. Med. Chem. 2016, read-out: IC50 of SIRT2 inhibition (Table S1)
# [2] = Table S2, SIRT2 inhibition of SirReal2 analogues, read-out: IC50 (Table S2)
# [3] = SirReal2 analogs, read-out: SIRT2 IC50
Compound,IC50 [1] [µM],IC50 [2] [µM],further results
Cc1cc(C)nc(SCC(=O)Nc2nnc(Cc3cccc4ccccc34)s2)n1 [Compound 24],1.9,1.89,–
Cc1cc(C)nc(SCC(=O)Nc2ncc(C(=O)Nc3cccc4ccccc34)s2)n1 [Compound 9],33,–,–
Cc1cc(C)nc(SCC(=O)Nc2nnc(Cc3ccc(Br)cc3)s2)n1 [Compound 23],168,–,–
CCc1cc(CC)nc(SCC(=O)Nc2ncc(Cc3cccc4ccccc34)s2)n1 [Compound 17],45.6,–,–
Cc1cc(C)nc(SCC(=O)Nc2nnc(Cc3ccc(Cl)cc3)s2)n1 [Compound 22],30.9,–,–
CCOc1ccc2nc(NC(=O)CSc3nc(C)cc(C)n3)sc2c1 [Compound 25],207,207,–
Cc1cc(C)nc(SCC(=O)Nc2ncc(Cc3cccc4ccc(Br)cc34)s2)n1 [Compound 14],0.2,–,IC50 [3]: 0.21 µM
Cc1cc(C)nc(SC(C)C(=O)Nc2ncc(Cc3cccc4ccccc34)s2)n1 (stereo not shown) [Compound 11],9.8,9.77,–
Cc1cc(C)nc(SCC(=O)Nc2ncc(Cc3cccc4ccc(Cl)cc34)s2)n1 [Compound 10],0.2,0.18,–
CC(Br)C(=O)c1ccc(Br)cc1 (stereo not shown) [Compound 1],–,–,"IC50 (read-out: IC50 (Table S2), Table S2, SIRT2 inhibition of SirReal2 analogues): 3.75 µM; IC50 (read-out: IC50 of SIRT2 inhibition (Table S1), Table S1, ref [2] Schiedel et al., J. Med. Chem. 2016): 3.8 µM"
CCOC(=O)c1sc(N)nc1-c1ccc(Br)cc1 [Compound 4],3.4,–,–
Cc1cc(C)nc(SCC(=O)Nc2ncc(Cc3ccc(-c4ccccc4)cc3)s2)n1 [Compound 6],164,–,–
Cc1cc(C)cc(SCC(=O)Nc2ncc(Cc3cccc4ccccc34)s2)c1 [Compound 8],207,–,IC50 [3]: 143 to 207 µM
O=C(CSc1ncccn1)Nc1ncc(Cc2cccc3ccccc23)s1 [Compound 16],2.3,2.34,–
